Biological target: T1, PMS2 protein (Homo sapiens, UniProt P54278)
T1 construct: host or cells: SW620 human colorectal carcinoma cells
T1 sequence (P54278 1-862): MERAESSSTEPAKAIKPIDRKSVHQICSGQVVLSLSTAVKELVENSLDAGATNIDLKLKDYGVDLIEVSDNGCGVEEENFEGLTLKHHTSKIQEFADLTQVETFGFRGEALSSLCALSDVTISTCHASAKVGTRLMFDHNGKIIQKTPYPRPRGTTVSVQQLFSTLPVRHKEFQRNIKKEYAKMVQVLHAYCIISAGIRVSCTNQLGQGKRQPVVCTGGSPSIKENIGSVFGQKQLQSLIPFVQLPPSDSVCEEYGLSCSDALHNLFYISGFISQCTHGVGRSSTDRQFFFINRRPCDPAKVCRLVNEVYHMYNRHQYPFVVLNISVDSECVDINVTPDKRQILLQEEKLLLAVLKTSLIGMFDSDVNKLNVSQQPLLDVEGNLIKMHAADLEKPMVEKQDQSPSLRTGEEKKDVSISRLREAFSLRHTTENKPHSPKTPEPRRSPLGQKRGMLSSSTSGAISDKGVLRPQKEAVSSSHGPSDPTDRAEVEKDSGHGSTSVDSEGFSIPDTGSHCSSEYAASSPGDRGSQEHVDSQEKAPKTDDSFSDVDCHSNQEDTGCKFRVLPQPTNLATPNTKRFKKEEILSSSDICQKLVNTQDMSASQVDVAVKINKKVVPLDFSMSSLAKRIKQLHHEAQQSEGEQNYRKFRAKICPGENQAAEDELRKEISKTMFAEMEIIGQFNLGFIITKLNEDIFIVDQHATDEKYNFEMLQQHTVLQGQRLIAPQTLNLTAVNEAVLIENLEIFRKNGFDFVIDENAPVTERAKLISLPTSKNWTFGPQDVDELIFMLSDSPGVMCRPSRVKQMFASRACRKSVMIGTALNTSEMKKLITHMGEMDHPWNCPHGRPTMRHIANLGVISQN
Experiment: PROTAC screening in SW620 human colorectal carcinoma cells, PMS2 protein level by JESS Western blot
Format: cell-based
Conditions: SW-620, 24 h, 1 uM compound, normalised to actin and DMSO control, Table A1
Description: PROTAC Screening Protocol Using SW620 Human Colorectal Carcinoma Cells
SVW620 cells (ATCC/[…]) were cultured in T75 Falcon flasks in culture media (F12/DMEM 1:1 media, 10% FCS, +L-G supplement). Cells were split twice a week, for a maximum of 6 weeks. Media was aspirated, and cells washed with 10 mL of sterile PBS. PBS was aspirated, and cells incubated with 1.5 mL TrypLE for up to 5 minutes at 37° C., 5% CO2. Once cells had detached, TrypLE was neutralised with 10 mL culture media and cells mixed 1:1 with Trypan blue and quantified using a Luna cell counter. Cells were then seeded into fresh T75 flasks with 1×10^6 cells and 10 mL culture media.
SW620 cells, cultured and counted as above, were used to seed 12 well plates at a density of 1.5×10^5 cells/well and incubated overnight at 37° C., 5% CO2. Test compounds were solubilized in DMSO to a stock concentration of 10 mM and serially diluted in DMSO and media to their test concentration; the final concentration of DMSO was 0.1% (v/v). Each concentration was tested in triplicate. SW620 cells were incubated with test compound for 24 hours at 37° C., 5% CO2. Media was aspirated from each well, and each well washed with 1 mL ice cold PBS. PBS was then aspirated, and 50 μL of cold lysis buffer (RIPA buffer supplemented with 1× protease inhibitors, Benzonase, MgCl) was added to each well; plates were then incubated on ice for 5 minutes. Cells were scraped using a pipette tip before being transferred to a fresh Eppendorf. Samples were spun at maximum speed in a benchtop centrifuge for 5 minutes at 4° C. and supernatant was then transferred to fresh tubes. Samples were stored at −80° C. until analysis.
Bicinchonininic acid (BCA) protein assay standards (2-0.125 mg/mL BSA) were prepared in advance. 6 μL of each standard was pipetted in duplicate into rows A and B of a 384-well assay plate. Test samples were diluted in lysis buffer (1:3-1:10) in a 384-well plate in duplicate. BCA Reagents were combined 50:1, Part A:Part B and 50 μL added to each well. Plates were incubated for 30 min at 37° C. in a plate incubator and read using a BCA protein 384 protocol on an EnSpire plate reader. Protein concentrations were calculated from a standard curve.
JESS Western Blot Protocol
Protein lysates were prepared using Protein Simple EZ standard pack reagents: 40 μL distilled H2O was added to a DTT tube (clear) and treated with 20 μL 10× sample buffer and 20 μL DTT to 5×MM tube (pink). 20 μL dH2O was added to biotinylated ladder tube (green).
Test samples were prepared by dilution to the required concentration (0.1 mg/mL) in 0.1× sample buffer. 1.25 μL 5× fluorescent master mix from the EZ standard pack was added to 5 μL sample for each lane to be loaded (e.g. 2.5 μL+10 μL if loading same sample into 2 wells). Samples were vortexed, briefly spun down and heated at 95° C. for 5 min in a PCR machine then vortexed again and briefly spun down before loading onto JESS cassettes (catalogue No: SM-W004) according to manufacturer's instructions (https://www.proteinsimple.com/technical_library.html?product=simplewestern&def_list=list). Protein expression was determined by the peak area of the target protein signal. Peak area of the target protein was normalised to peak area of the loading control (actin) and to DMSO control.

remaining activity at 1 µM [%]	Compound
< 10	Cc1ncsc1-c1ccc(CNC(=O)[C@@H]2C[C@@H](O)CN2C(=O)[C@@H](NC(=O)CCCCCCC(=O)N2CCN(Cc3ccc4c(c3)CN(C(=O)c3c(O)cc(O)c(C)c3OCc3ccccc3)C4)CC2)C(C)(C)C)cc1 [Example 25, (2S,4R)-1-[(2S)-2-[[8-[4-[[2-(2-Benzyloxy-4,6-dihydroxy-3-methyl-benzoyl)isoindolin-5-yl]methyl]piperazin-1-yl]-8-oxo-octanoyl]amino]-3,3-dimethyl-butanoyl]-4-hydroxy-N-[[4-(4-methylthiazol-5-yl)phenyl]methyl]pyrrolidine-2-carboxamide]
25 to 50	Cc1c(O)cc(O)c(C(=O)N2Cc3ccc(C(=O)N4CCC(OCCOCCOCCN5CCN(c6cc7c(cc6F)C(=O)N(C6CCC(=O)NC6=O)C7=O)CC5)CC4)cc3C2)c1OCc1ccccc1 (stereo not shown) [Example 18, 5-(4-(2-(2-(2-((1-(2-(2-(Benzyloxy)-4,6-dihydroxy-3-methylbenzoyl)isoindoline-5-carbonyl)piperidin-4-yl)oxy)ethoxy)ethoxy)ethyl)piperazin-1-yl)-2-(2,6-dioxopiperidin-3-yl)-6-fluoroisoindoline-1,3-dione]
< 10	Cc1ncsc1-c1ccc(CNC(=O)[C@@H]2C[C@@H](O)CN2C(=O)[C@@H](NC(=O)CCCCCC(=O)N2CCN(Cc3ccc4c(c3)CN(C(=O)c3c(O)cc(O)c(C)c3OCC3CCCCC3)C4)CC2)C(C)(C)C)cc1 [Example 26, (2S,4R)-1-[(2S)-2-[[7-[4-[[2-[2-(Cyclohexylmethoxy)-4,6-dihydroxy-3-methyl-benzoyl]isoindolin-5-yl]methyl]piperazin-1-yl]-7-oxo-heptanoyl]amino]-3,3-dimethyl-butanoyl]-4-hydroxy-N-[[4-(4-methylthiazol-5-yl)phenyl]methyl]pyrrolidine-2-carboxamide]
10 to 25	Cc1c(O)cc(O)c(C(=O)N2Cc3ccc(CN4CCN(CCOCCOCCOCCOCCOCCOc5cccc6c5C(=O)N(C5CCC(=O)NC5=O)C6=O)CC4)cc3C2)c1OCc1ccccc1 (stereo not shown) [Example 12, 4-((17-(4-((2-(2-(Benzyloxy)-4,6-dihydroxy-3-methylbenzoyl)isoindolin-5-yl)methyl)piperazin-1-yl)-3,6,9,12,15-pentaoxaheptadecyl)oxy)-2-(2,6-dioxopiperidin-3-yl)isoindoline-1,3-dione]
< 10	Cc1c(O)cc(O)c(C(=O)N2Cc3ccc(CN4CCN(CCOCCOCCOCCOCCOCCNc5cccc6c5C(=O)N(C5CCC(=O)NC5=O)C6=O)CC4)cc3C2)c1OCc1ccccc1 (stereo not shown) [Example 4, 4-((17-(4-((2-(2-(Benzyloxy)-4,6-dihydroxy-3-methylbenzoyl)isoindolin-5-yl)methyl)piperazin-1-yl)-3,6,9,12,15-pentaoxaheptadecyl)amino)-2-(2,6-dioxopiperidin-3-yl)isoindoline-1,3-dione]
25 to 50	Cc1c(O)cc(O)c(C(=O)N2Cc3ccc(CN4CCN(CCOCCOCCOc5cccc6c5C(=O)N(C5CCC(=O)NC5=O)C6=O)CC4)cc3C2)c1OCc1ccccc1 (stereo not shown) [Example 10, 4-(2-(2-(2-(4-((2-(2-(Benzyloxy)-4,6-dihydroxy-3-methylbenzoyl)isoindolin-5-yl)methyl)piperazin-1-yl)ethoxy)ethoxy)ethoxy)-2-(2,6-dioxopiperidin-3-yl)isoindoline-1,3-dione]
10 to 25	Cc1c(O)cc(O)c(C(=O)N2Cc3ccc(CN4CCN(CCOCCOCCOCCOCCOCCOCCNc5cccc6c5C(=O)N(C5CCC(=O)NC5=O)C6=O)CC4)cc3C2)c1OCC1CCCCC1 (stereo not shown) [Example 8, 4-[2-[2-[2-[2-[2-[2-[2-[4-[[2-[2-(Cyclohexylmethoxy)-4,6-dihydroxy-3-methyl-benzoyl]isoindolin-5-yl]methyl]piperazin-1-yl]ethoxy]ethoxy]ethoxy]ethoxy]ethoxy]ethoxy]ethylamino]-2-(2,6-dioxo-3-piperidyl)isoindoline-1,3-dione]
< 10	Cc1ncsc1-c1ccc(CNC(=O)[C@@H]2C[C@@H](O)CN2C(=O)[C@@H](NC(=O)CCCCCCCCCC(=O)N2CCN(Cc3ccc4c(c3)CN(C(=O)c3c(O)cc(O)c(C)c3OCC3CCCCC3)C4)CC2)C(C)(C)C)cc1 [Example 30, (2S,4R)-1-[(2S)-2-[[11-[4-[[2-[2-(Cyclohexylmethoxy)-4,6-dihydroxy-3-methyl-benzoyl]isoindolin-5-yl]methyl]piperazin-1-yl]-11-oxo-undecanoyl]amino]-3,3-dimethyl-butanoyl]-4-hydroxy-N-[[4-(4-methylthiazol-5-yl)phenyl]methyl]pyrrolidine-2-carboxamide]
10 to 25	Cc1c(O)cc(O)c(C(=O)N2Cc3ccc(CN4CCN(CCOCCOCCOCCNc5cccc6c5CN(C5CCC(=O)NC5=O)C6=O)CC4)cc3C2)c1OCC1CCCCC1 (stereo not shown) [Example 17, 3-(4-((2-(2-(2-(2-(4-((2-(2-(Cyclohexylmethoxy)-4,6-dihydroxy-3-methylbenzoyl)isoindolin-5-yl)methyl)piperazin-1-yl)ethoxy)ethoxy)ethoxy)ethyl)amino)-1-oxoisoindolin-2-yl)piperidine-2,6-dione]
10 to 25	Cc1c(O)cc(O)c(C(=O)N2Cc3ccc(C(=O)N4CCC(CN5CCN(c6cc7c(cc6F)C(=O)N(C6CCC(=O)NC6=O)C7=O)CC5)CC4)cc3C2)c1OCc1ccccc1 (stereo not shown) [Example 23, 5-(4-((1-(2-(2-(Benzyloxy)-4,6-dihydroxy-3-methylbenzoyl)isoindoline-5-carbonyl)piperidin-4-yl)methyl)piperazin-1-yl)-2-(2,6-dioxopiperidin-3-yl)-6-fluoroisoindoline-1,3-dione]
10 to 25	Cc1c(O)cc(O)c(C(=O)N2Cc3ccc(CN4CCN(CCOCCOCCOCCOc5cccc6c5CN(C5CCC(=O)NC5=O)C6=O)CC4)cc3C2)c1OCc1ccccc1 (stereo not shown) [Example 14, 3-(4-(2-(2-(2-(2-(4-((2-(2-(Benzyloxy)-4,6-dihydroxy-3-methylbenzoyl)isoindolin-5-yl)methyl)piperazin-1-yl)ethoxy)ethoxy)ethoxy)ethoxy)-1-oxoisoindolin-2-yl)piperidine-2,6-dione]
10 to 25	Cc1c(O)cc(O)c(C(=O)N2Cc3ccc(CN4CCC(CC(=O)N5CCN(c6ccc7c(c6)CN(C6CCC(=O)NC6=O)C7=O)CC5)CC4)cc3C2)c1OCC1CCCCC1 (stereo not shown) [Example 20, 3-(5-(4-(2-(1-((2-(2-(Cyclohexylmethoxy)-4,6-dihydroxy-3-methylbenzoyl)isoindolin-5-yl)methyl)piperidin-4-yl)acetyl)piperazin-1-yl)-1-oxoisoindolin-2-yl)piperidine-2,6-dione]

Same assay, conditions: SW-620, 24 h, 1 uM compound, upon further testing, Table A2

remaining activity at 1 µM [%]	Compound
< 10	Cc1c(O)cc(O)c(C(=O)N2Cc3ccc(CN4CCN(CCOCCOCCOCCOCCOCCOc5cccc6c5C(=O)N(C5CCC(=O)NC5=O)C6=O)CC4)cc3C2)c1OCc1ccccc1 (stereo not shown) [Example 12, 4-((17-(4-((2-(2-(Benzyloxy)-4,6-dihydroxy-3-methylbenzoyl)isoindolin-5-yl)methyl)piperazin-1-yl)-3,6,9,12,15-pentaoxaheptadecyl)oxy)-2-(2,6-dioxopiperidin-3-yl)isoindoline-1,3-dione]
